Bounds are passed on as bounds.

For data set [1] the following is noted: ionizing side chain of the amino acid residue; cited from earlier work.
The subject of a further data set is breast cancer cells. The experiment in a line: Breast cancer cell suspension in vitro treated with polysorbate 80. It is filed as cell-based. The source says: Parkinson's disease also has an abnormal protein alpha synuculein intracytoplasmic aggregate/inclusion. Lewy bodies instead of normal random coil repeat proteins structures, cancer with deficiency in HLB modulation and adequate surfactant required by DNA progress through normal rheologic flow required in mitosis with normal cellular and nuclear division and sharing of DNA genetic traits and the resultant formation of normal daughter cells. The darkly stained nuclear mitotic figures makes its appearance as an aggregate plaque or precipitate removed from the normal flow of nuclear function and the microcirculation of nuclear DNA genetic nuclear focus and originating cell division. Response to hydrophilic surfactant in vitro is supportive of this thesis (83 percent of the breast cancer cells were killed in 24 to 48 hours with exposure to 0.25 percent polysorbate 80, Tween 80). Again countering the poor solubility of the plaque-like mechanism disease which contributes to metabolization and the normal metabolic turnover of all cell tissue and organs brings about a disease-free therapeutic response. About one-third of these cancers are associated with inflammatory immunologic response T lymphocytic-plasma cell changes and are of poor prognosis. Response to HLB modulation towards a hydrophilic HLB has provided an 83 percent in-vitro encouraging response reported in other embodiment.
Successful anticancer therapeutic activity cancer tissue cell in vitro′ breast cancer cell suspension comparative trials with treatment with 0.25 percent to 0.5 percent polysorbate 80 (Mean 80) with 83 percent reduction in 24 to 48 hours of cancer cell mitochondrial activity after HLB modulation with tween 80, and 50 percent reduction in cancer cells' abnormal morphology and abnormal mitosis on cytopathologic review.

Data set [2] has as its system dermatitis and fungal infection of the toe nail. As to conditions: 50% acetic acid, brief periods of application. The method, then: Ammoniated butyric acid is […]. […] The acetic acid represents the deaminated glycine in this subject composition can be applied one to seven days per week and can be applied multiple times in one day. The duration of application can range from 2 to 60 minutes (or any other chosen interval) per application.

For data set [3] the following is noted: cited from earlier work; for absorption after oral administration: gastrointestinal tract.
For data set [4] the following is noted: uric acid crystals; cited from earlier work.
The subject of data set [5] is pediatric liver transplant recipients. As to conditions: of 64 pediatric liver transplant recipients; cited from earlier work.

Take `N[C@@H](CC(=O)O)C(=O)O` [Asp, aspartic acid]: the “pK of side chain” value in data set [1] was 4.2-4.5.
With `CCCCCCCC/C=C\CCCCCCCC(=O)OCCOCC(OCCO)C1OCC(OCCO)C1OCCO` (stereo not drawn) [polysorbate 80], the “breast cancer cells killed” value with breast cancer cells (0.25 percent polysorbate 80, 24 to 48 hours) is 83%. For the same molecule, the “reduction in cancer cells' abnormal morphology and abnormal mitosis on cytopathologic review” value in the data set with breast cancer cells (0.25 percent to 0.5 percent polysorbate 80) is given as 50%. For the same molecule, the “reduction of cancer cell mitochondrial activity” value with breast cancer cells (0.25 percent to 0.5 percent polysorbate 80, 24 to 48 hours) is 83%.
For the molecule `N[C@@H](CS)C(=O)O` [Cys, cysteine], the “pK of side chain” value in data set [1] was 7.5-8.5.
With `N=C(N)NCCC[C@H](N)C(=O)O` [Arg, arginine], the ΔH in data set [1] was 11.6 to 13 kcal/mol.
As to `CC(=O)O` [acetic acid], in data set [2], the “effect on dermatitis and fungal toe nail infection” value is “dramatically reverse long-term dermatitis and, fungal infection of the toe nail”.
As to `NCCCC[C@H](N)C(=O)O` [Lys, lysine], in data set [1], the “pK of side chain” value is 9.8-10.4 and the ΔH is 10 to 11.6 kcal/mol.
Consider `COc1ccc2c(c1)c(CC(=O)O)c(C)n2C(=O)c1ccc(Cl)cc1` [Indomethacin], for which the “steady-state concentrations in plasma” value in data set [3] (after long-term administration) is recorded as “approximately 0.5 micrograms/ml”. Further, the “time to peak concentration in plasma” value in data set [3] (fasting subject, oral) was no more than 2 h. Moreover, in data set [3], the “absorption after oral administration” value is “rapidly and almost completely absorbed”. Besides, the “bound to plasma proteins” value in data set [3] (in vivo) is given as 90%. For the same molecule, in data set [3] (inactive metabolites), the “converted by O-demethylation” value was “about 50%” and the “converted by conjugation with glucuronic acid” value is “about 10%”. For the same molecule, the “concentrations in plasma required for an anti-inflammatory effect” value in data set [3] (not definitely determined) is “less than 1 microgram per ml”.
Take `O=C(O)c1cc(/N=N/c2ccc(S(=O)(=O)Nc3ccccn3)cc2)ccc1O` [Sulfasalazine, salicylazosulfapyridine]: in data set [3], the “absorption after oral administration” value was “poorly absorbed”.
As to `N[C@@H](Cc1c[nH]cn1)C(=O)O` [His, histidine], in data set [1], the “pK of side chain” value was 6.2-6.5 and the ΔH is 6.93 to 7.53 kcal/mol.
As for `N[C@@H](CCC(=O)O)C(=O)O` [Glu, glutamic acid], in data set [1], the “pK of side chain” value is 4.3-4.6.
As for `O=c1[nH]c(=O)c2[nH]c(=O)[nH]c2[nH]1` [uric acid], in data set [4], the solubility in glycerine result is recorded as “very soluble” and the solubility in water entry is “marked insolubility”.
Regarding `C=CC[C@@H]1/C=C(\C)C[C@H](C)C[C@H](OC)[C@H]2O[C@@](O)(C(=O)C(=O)N3CCCC[C@H]3C(=O)O[C@H](/C(C)=C/[C@@H]3CC[C@@H](O)[C@H](OC)C3)[C@H](C)[C@@H](O)CC1=O)[C@H](C)C[C@@H]2OC` [tacrolimus], in data set [5], the “patients who experienced food allergies” value is 17% and the “patients who experienced food allergies (number)” value was 11.
